{
  "source": "patent US20050220819A1",
  "about": "“Novel binding epitopes for helicobacter pylori and use thereof” (priority 2002, published 2005)",
  "key": {"Helicobacter pylori [1]": {"system": "Helicobacter pylori", "assay": "TLC bacterial overlay assay: binding of radiolabeled Helicobacter pylori to glycosphingolipids, neoglycolipids and glycolipid derivatives on thin-layer plates", "details": "for binding activity of neoglycolipids with regard to Helicobacter pylori (in words): oligosaccharides reductively aminated to lipid anchor (4-hexadecylaniline); for binding activity of neoglycolipids with regard to Helicobacter pylori (in words) / binding of glycolipid derivatives with regard to Helicobacter pylori (in words): TLC overlay assay; for binding of Helicobacter pylori to purified glycosphingolipids (in words): strain 032, overlay assay on thin-layer plates"}, "Helicobacter pylori [2]": {"system": "Helicobacter pylori", "details": "Mysore et al., 2000; cited from earlier work"}, "[3]": {"system": "Helicobacter pylori binding to human gastrointestinal cell lines", "details": "Simon et al., 1999; cited from earlier work"}},
  "note": "Entries after “also recorded” stand apart in the source; their conditions may differ.",
  "data": [
    {"compound": "CC(=O)NC1C(O)OC(CO)C(OC2OC(CO)C(O)C(OC3OC(CO)C(OC4OC(CO)C(O)C(O)C4NC(C)=O)C(O)C3NC(C)=O)C2O)C1O", "note": "(stereo not shown) [GalNAcβ4GlcNAcβ3Galβ4GlcNAc]", "values": [
      {"measurement": "binding activity of neoglycolipids with regard to Helicobacter pylori (in words)", "setting": "Helicobacter pylori [1]", "result": "clear binding activity"}
    ]},
    {"compound": "CC(=O)NC1C(OC2C(O)C(CO)OC(OC3C(CO)OC(O)C(O)C3O)C2O)OC(CO)C(OC2OC(CO)C(O)C(OC3OC(CO)C(O)C(O)C3O)C2O)C1O", "note": "(stereo not shown) [Galα3Galβ4GlcNAcβ3Galβ4Glc]", "values": [
      {"measurement": "binding activity of neoglycolipids with regard to Helicobacter pylori (in words)", "setting": "Helicobacter pylori [1]", "result": "clear binding activity"}
    ]},
    {"compound": "CC(=O)N[C@H]1[C@H](OC[C@H]2OC(O)[C@H](NC(C)=O)[C@@H](O)[C@@H]2O)O[C@H](CO)[C@@H](O[C@@H]2O[C@H](CO)[C@H](O)[C@H](O)[C@H]2O)[C@@H]1O", "note": "(stereo partly shown) [Galβ4GlcNAcβ6GlcNAc]", "values": [
      {"measurement": "binding activity of neoglycolipids with regard to Helicobacter pylori (in words)", "setting": "Helicobacter pylori [1]", "result": "clear binding activity"}
    ]},
    {"compound": "CNC(=O)C1OC(OC2C(O)C(CO)OC(OC3C(CO)OC(OCC4OC(O)C(NC(C)=O)C(O)C4O)C(NC(C)=O)C3O)C2O)C(O)C(O)C1O", "note": "(stereo not drawn) [Glc(A-methylamide)β3Galβ4GlcNAcβ6GlcNAc]", "values": [
      {"measurement": "binding activity of neoglycolipids with regard to Helicobacter pylori (in words)", "setting": "Helicobacter pylori [1]", "result": "strong binding activity"}
    ]},
    {"compound": "CC(=O)NC1C(OC2C(O)C(CO)OC(OC3C(CO)OC(O)C(O)C3O)C2O)OC(CO)C(OC2OC(CO)C(O)C(OC3OC(C(=O)O)C(O)C(O)C3O)C2O)C1O", "note": "(stereo not shown) [GlcAβ3Galβ4GlcNAcβ3Galβ4Glc]", "values": [
      {"measurement": "binding activity of neoglycolipids with regard to Helicobacter pylori (in words)", "setting": "Helicobacter pylori [1]", "result": "clear binding activity"}
    ]},
    {"compound": "CC(=O)NC1C(O)OC(CO)C(OC2OC(CO)C(O)C(OC3OC(CO)C(O)C(O)C3NC(C)=O)C2O)C1O", "note": "(stereo not shown) [GlcNAcβ3Galβ4GlcNAc]", "values": [
      {"measurement": "binding activity of neoglycolipids with regard to Helicobacter pylori (in words)", "setting": "Helicobacter pylori [1]", "result": "weakly binding or inactive"}
    ]},
    {"compound": "CC(=O)NC1C(O)OC(COC2OC(CO)C(OC3OC(CO)C(O)C(OC4OC(CO)C(O)C(O)C4NC(C)=O)C3O)C(O)C2NC(C)=O)C(O)C1O", "note": "(stereo not shown) [GlcNAcβ3Galβ4GlcNAcα6GlcNAc]", "values": [
      {"measurement": "binding activity of neoglycolipids with regard to Helicobacter pylori (in words)", "setting": "Helicobacter pylori [1]", "result": "weakly binding or inactive"},
      {"measurement": "binding activity of neoglycolipids with regard to Helicobacter pylori (in words)", "setting": "Helicobacter pylori [1]; listed as GlcNAcα3Galβ4GlcNAcα6GlcNAc", "result": "inactive or very weakly active"}
    ]},
    {"compound": "CC(=O)N[C@H]1[C@H](O[C@H]2[C@@H](O)[C@@H](CO)O[C@@H](O[C@H]3[C@H](O)[C@@H](O)C(O)O[C@@H]3CO)[C@@H]2O)O[C@H](CO)[C@@H](O[C@@H]2O[C@H](CO)[C@H](O)[C@@H](O[C@@H]3O[C@H](CO)[C@@H](O)[C@H](O)[C@H]3NC(C)=O)[C@H]2O)[C@@H]1O", "note": "(stereo partly shown) [GlcNAcβ3Galβ4GlcNAcβ3Galβ4Glc]", "values": [
      {"measurement": "binding activity of neoglycolipids with regard to Helicobacter pylori (in words)", "setting": "Helicobacter pylori [1]", "result": "clear binding activity"}
    ]},
    {"compound": "CC(=O)NC1C(OC2C(O)C(CO)OC(OC3C(CO)OC(OC4C(O)C(O)OC(CO)C4O)C(NC(C)=O)C3O)C2O)OC(CO)C(O)C1O", "note": "(stereo not shown) [GlcNAcβ3Galβ4GlcNAcβ3Man]", "values": [
      {"measurement": "binding activity of neoglycolipids with regard to Helicobacter pylori (in words)", "setting": "Helicobacter pylori [1]", "result": "clear binding activity"}
    ]},
    {"compound": "CC(=O)N[C@H]1[C@H](OC[C@H]2OC(O)[C@H](O)[C@@H](O)[C@H]2O)O[C@H](CO)[C@@H](O[C@@H]2O[C@H](CO)[C@H](O)[C@H](O[C@@H]3O[C@H](CO)[C@@H](O)[C@H](O)[C@H]3NC(C)=O)[C@H]2O)[C@@H]1O", "note": "(stereo partly shown) [GlcNAcβ3Galβ4GlcNAcβ6Gal]", "values": [
      {"measurement": "binding activity of neoglycolipids with regard to Helicobacter pylori (in words)", "setting": "Helicobacter pylori [1]", "result": "some binding activity; also recorded: strong binding activity"}
    ]},
    {"compound": "CC(=O)N[C@H]1[C@H](OC[C@H]2O[C@@H](O[C@H]3[C@H](O)[C@@H](O)C(O)O[C@@H]3CO)[C@H](O)[C@@H](O)[C@H]2O)O[C@H](CO)[C@@H](O[C@@H]2O[C@H](CO)[C@H](O)[C@H](O[C@@H]3O[C@H](CO)[C@@H](O)[C@H](O)[C@H]3NC(C)=O)[C@H]2O)[C@@H]1O", "note": "(stereo partly shown) [GlcNAcβ3Galβ4GlcNAcβ6Galβ4Glc]", "values": [
      {"measurement": "binding activity of neoglycolipids with regard to Helicobacter pylori (in words)", "setting": "Helicobacter pylori [1]", "result": "weakly binding or inactive; also recorded: binding activity was strongly reduced"}
    ]},
    {"compound": "CC(=O)N[C@H]1[C@H](OC[C@H]2OC(O)[C@H](NC(C)=O)[C@@H](O)[C@@H]2O)O[C@H](CO)[C@@H](O[C@@H]2O[C@H](CO)[C@H](O)[C@H](O[C@@H]3O[C@H](CO)[C@@H](O)[C@H](O)[C@H]3NC(C)=O)[C@H]2O)[C@@H]1O", "note": "(stereo partly shown) [GlcNAcβ3Galβ4GlcNAcβ6GlcNAc]", "values": [
      {"measurement": "binding activity of neoglycolipids with regard to Helicobacter pylori (in words)", "setting": "Helicobacter pylori [1]", "result": "high affinity binding; also recorded: strong binding activity"}
    ]},
    {"compound": "GalNAcβ3Galα3Galβ4GlcNAcβ3Galβ4Glcβ1Cer [No. 25, reference compound]", "values": [
      {"measurement": "binding of Helicobacter pylori to purified glycosphingolipids (in words)", "setting": "Helicobacter pylori [1]", "result": "non-binding"}
    ]},
    {"compound": "GalNAcβ3Galβ4GlcNAcβ3Galβ4Glcβ1Cer [No. 11, reference compound]", "values": [
      {"measurement": "binding of Helicobacter pylori to purified glycosphingolipids (in words)", "setting": "Helicobacter pylori [1]", "result": "binding was also found"}
    ]},
    {"compound": "Galα3Galβ4GlcNAcβ3Galβ4Glcβ1Cer [No. 13, reference compound]", "values": [
      {"measurement": "binding of Helicobacter pylori to purified glycosphingolipids (in words)", "setting": "Helicobacter pylori [1]", "result": "binding-active"}
    ]},
    {"compound": "Glc(A-NH2)β3GalNAcβ4Glc(A-NH2)β3GalNAc", "values": [
      {"measurement": "binding activity of neoglycolipids with regard to Helicobacter pylori (in words)", "setting": "Helicobacter pylori [1]", "result": "strong binding activity"}
    ]},
    {"compound": "Glc(A-benzylamide)β3 Galβ4GlcNAcβ3Galβ4GlcβCer", "values": [
      {"measurement": "binding of glycolipid derivatives with regard to Helicobacter pylori (in words)", "setting": "Helicobacter pylori [1]", "result": "binding active"},
      {"measurement": "binding strength towards H. pylori when comparing dilution series of glycolipids on TLC (in words)", "setting": "Helicobacter pylori [1]", "result": "binding effectively"}
    ]},
    {"compound": "Glc(A-ethylamide)β3 Galβ4GlcNAcβ3Galβ4GlcβCer", "values": [
      {"measurement": "binding of glycolipid derivatives with regard to Helicobacter pylori (in words)", "setting": "Helicobacter pylori [1]", "result": "binding active"},
      {"measurement": "binding strength towards H. pylori when comparing dilution series of glycolipids on TLC (in words)", "setting": "Helicobacter pylori [1]", "result": "about equally strong binders and best among the four amide derivatives"}
    ]},
    {"compound": "Glc(A-methylamide)β3Galβ4GlcNAcβ3Galβ4GlcβCer", "values": [
      {"measurement": "binding of glycolipid derivatives with regard to Helicobacter pylori (in words)", "setting": "Helicobacter pylori [1]", "result": "binding active"},
      {"measurement": "binding strength towards H. pylori when comparing dilution series of glycolipids on TLC (in words)", "setting": "Helicobacter pylori [1]", "result": "very strong binding"}
    ]},
    {"compound": "Glc(A-octadecylamide)β3Galβ4GlcNAcβ3Galβ4GlcβCer", "values": [
      {"measurement": "binding of glycolipid derivatives with regard to Helicobacter pylori (in words)", "setting": "Helicobacter pylori [1]", "result": "binding active"},
      {"measurement": "binding strength towards H. pylori when comparing dilution series of glycolipids on TLC (in words)", "setting": "Helicobacter pylori [1]", "result": "binding effectively"}
    ]},
    {"compound": "GlcAβ3GalNAcβ4GlcAβ3GalNAcβ4GlcAβ3GalNAc", "values": [
      {"measurement": "binding activity of neoglycolipids with regard to Helicobacter pylori (in words)", "setting": "Helicobacter pylori [1]", "result": "clear binding activity"}
    ]},
    {"compound": "GlcAβ3Galβ4GlcNAcβ3Galβ4GlcβCer [reference compound]", "values": [
      {"measurement": "binding of glycolipid derivatives with regard to Helicobacter pylori (in words)", "setting": "Helicobacter pylori [1]", "result": "binding active"}
    ]},
    {"compound": "GlcAβ3Galβ4GlcNAcβ6GlcNAc", "values": [
      {"measurement": "binding activity of neoglycolipids with regard to Helicobacter pylori (in words)", "setting": "Helicobacter pylori [1]", "result": "clear binding activity"}
    ]},
    {"compound": "Glcβ3Galβ4GlcNAcβ3Galβ4GlcβCer", "values": [
      {"measurement": "binding of glycolipid derivatives with regard to Helicobacter pylori (in words)", "setting": "Helicobacter pylori [1]", "result": "binding active"},
      {"measurement": "binding strength towards H. pylori when comparing dilution series of glycolipids on TLC (in words)", "setting": "Helicobacter pylori [1]", "result": "strong binding"}
    ]},
    {"compound": "NeuAcα3GalNAcβ3Galβ4GlcNAcβ3Galβ4Glcβ1Cer [No. 24, reference compound]", "values": [
      {"measurement": "binding of Helicobacter pylori to purified glycosphingolipids (in words)", "setting": "Helicobacter pylori [1]", "result": "non-binding"}
    ]},
    {"compound": "maltoheptaose [reference compound]", "values": [
      {"measurement": "binding activity of neoglycolipids with regard to Helicobacter pylori (in words)", "setting": "Helicobacter pylori [1]", "result": "weakly binding or inactive"}
    ]},
    {"compound": "sialyl-lactose", "values": [
      {"measurement": "efficacy in rhesus monkey animal model of the infection", "setting": "Helicobacter pylori [2]", "result": "effective"},
      {"measurement": "inhibition of Helicobacter pylori binding to human gastrointestinal cell lines", "setting": "[3]", "result": "inhibits"}
    ]}
  ]
}
